Source: article PMC7725003, “Systematically Studying the Optimal Amino Acid Distribution Patterns of the Amphiphilic Structure by Using the Ultrashort Amphiphiles” (Frontiers in Microbiology, 2020)
Where no end group is shown, it is not given here.

Assays:
E. coli 25922 = format: cell-based, Escherichia coli; conditions: 25922, 24 h
Protocol: (§1) The antimicrobial activities of the peptides were measured using a method adapted from the National Committee for Clinical Laboratory Standards (NCCLS) with some modifications ([Chou et al., 2016]). The specific procedure for these assays has been previously described. In brief, the bacterial cells were grown to a mid-logarithmic phase and diluted in MHB to an ultimate concentration of 0.5–1 × 10^6 CFU mL^–1. Subsequently, the peptides were consecutively diluted in a 0.2% BSA solution and then added to a bacterial solution in a 96-well plate at identical volumes. After incubation for 24 h at 37°C, the MICs were determined to be the lowest peptide concentration that inhibited 95% of the bacterial growth by monitoring the absorbance at 492 nm using a microplate reader. Subsequently, 50 μL of each incubation mixture was further transferred to agar plates and incubated overnight. The minimum bactericidal concentrations (MBCs) were determined as the lowest peptide concentration that killed greater than 99.9% of the bacterial cells. Every assay was reproduced more than 3 times.

E. coli O78 = format: cell-based, Escherichia coli; conditions: O78, 24 h
Protocol: as §1

E. coli UB1005 = format: cell-based, Escherichia coli; conditions: UB1005, 24 h
Protocol: as §1

S. typhimurium 14028 = format: cell-based, Salmonella typhimurium; conditions: 14028, 24 h
Protocol: as §1

S. typhimurium 7731 = format: cell-based, Salmonella typhimurium; conditions: 7731, 24 h
Protocol: as §1

S. pullorum 7913 = format: cell-based, Salmonella pullorum; conditions: 7913, 24 h
Protocol: as §1

P. aeruginosa 27853 = format: cell-based, Pseudomonas aeruginosa; conditions: 27853, 24 h
Protocol: as §1

Gram-negative bacteria = conditions: for GM, Gram-negative bacteria: geometric mean of MICs (Table 3); for TI, Gram-negative bacteria: therapeutic index TI = MHC/GM MIC
Protocol: (§2) The antimicrobial activity of AMPs is the most decisive index for evaluating the clinical application of antimicrobial drugs.
as §1, with “The minimum bactericidal concentrations (MBCs) were determined as the lowest peptide concentration that killed greater than 99.9% of the bacterial cells.” left out

Gram-positive bacteria = conditions: for GM, Gram-positive bacteria: geometric mean of MICs (Table 3); for TI, Gram-positive bacteria: therapeutic index TI = MHC/GM MIC
Protocol: as §2
as §1, with “The minimum bactericidal concentrations (MBCs) were determined as the lowest peptide concentration that killed greater than 99.9% of the bacterial cells.” left out

S. aureus 25923 = format: cell-based, Staphylococcus aureus; conditions: 25923, 24 h
Protocol: as §1

S. aureus 29213 [1] = format: cell-based, Staphylococcus aureus; conditions: 29213, 24 h
Protocol: as §1

S. epidermidis 12228 = format: cell-based, Staphylococcus epidermidis; conditions: 12228, 24 h
Protocol: as §1

MRSA 43300 = format: cell-based, methicillin-resistant S. aureus; conditions: 43300, 24 h
Protocol: as §1

B. subtilis 63501 = format: cell-based, Bacillus subtilis; conditions: 63501, 24 h
Protocol: as §1

E. faecalis 29212 = format: cell-based, Enterococcus faecalis; conditions: 29212, 24 h
Protocol: as §1

[2] = tested on: Listeria monocytogenes CGMCC 1.1075; format: cell-based; conditions: CGMCC 1.1075, 24 h
Protocol: as §1

[3] = tested on: all of the tested bacterial strains; experiment: Geometric mean of MICs, all tested bacterial strains; format: cell-based; conditions: for GM, All: geometric mean of MICs across all tested strains; for TI, All: therapeutic index TI = MHC/GM MIC
Description: The antimicrobial activity of AMPs is the most decisive index for evaluating the clinical application of antimicrobial drugs. Many antimicrobial agents inhibit bacterial growth rather than kill the bacteria quickly, and long-term infections are pathogens that are not completely killed, which results in bacterial severe drug resistance. […] The geometric mean (GM) values of the MICs/MBCs of the two series across all of the tested bacterial strains are represented in Table 3, which depicts the average bacteriostatic/bactericidal level of a peptide.
as §1

E. coli ATCC 25922 = experiment: Salt sensitivity assay (MIC); format: cell-based, Escherichia coli; conditions: for MIC, FeCl3: 4 μM FeCl3; for MIC, NH4Cl: 6 μM NH4Cl; for MIC, ZnCl2: 8 μM ZnCl2; for MIC, MgCl2: 1 mM MgCl2; for MIC, CaCl2: 2 mM CaCl2; for MIC, KCl: 4.5 mM KCl; for MIC, NaCl: 150 mM NaCl; for MIC, Control: no added salt, three independent assays
Protocol: as §1
(§3) The salt sensitivities of the peptides were determined. E. coli ATCC 25922 and S. aureus ATCC 29213 were incubated in the presence of various ultimate concentrations of physiological salts (150 mM NaCl, 4.5 mM KCl, 6 μM NH4Cl, 8 μM ZnCl2, 1 mM MgCl2, 2mM CaCl2, and 4 μM FeCl3) according to our previous protocol ([Yang et al., 2019]). These tests were performed under the MICs, and three independent assays were performed.

S. aureus 29213 [4] = experiment: Salt sensitivity assay (MIC); format: cell-based, Staphylococcus aureus; conditions: for MIC, FeCl3: 4 μM FeCl3; for MIC, NH4Cl: 6 μM NH4Cl; for MIC, ZnCl2: 8 μM ZnCl2; for MIC, MgCl2: 1 mM MgCl2; for MIC, CaCl2: 2 mM CaCl2; for MIC, KCl: 4.5 mM KCl; for MIC, NaCl: 150 mM NaCl; for MIC, Control: no added salt, three independent assays
Protocol: as §1, §3

Substance: RWRWRRWWW-NH2 [W9]
- MBC (E. coli 25922): 8 µM
- MIC (E. coli 25922): 4 µM
- MBC (E. coli O78): 8 µM
- MIC (E. coli O78): 4 µM
- MBC (E. coli UB1005): 8 µM
- MIC (E. coli UB1005): 4 µM
- MBC (S. typhimurium 14028): 16 µM
- MIC (S. typhimurium 14028): 8 µM
- MBC (S. typhimurium 7731): 8 µM
- MIC (S. typhimurium 7731): 4 µM
- MBC (S. pullorum 7913): 8 µM
- MIC (S. pullorum 7913): 4 µM
- MBC (P. aeruginosa 27853): 16 µM
- MIC (P. aeruginosa 27853): 8 µM
- GM, Gram-negative bacteria (Gram-negative bacteria): 4.67 µM
- TI, Gram-negative bacteria (Gram-negative bacteria): 54.82
- GM, Gram-positive bacteria (Gram-positive bacteria): 2.44 µM
- TI, Gram-positive bacteria (Gram-positive bacteria): 104.92
- MBC (S. aureus 25923): 4 µM
- MIC (S. aureus 25923): 2 µM
- MBC (S. aureus 29213 [1]): 4 µM
- MIC (S. aureus 29213 [1]): 2 µM
- MBC (S. epidermidis 12228): 4 µM
- MIC (S. epidermidis 12228): 2 µM
- MBC (MRSA 43300): 4 µM
- MIC (MRSA 43300): 2 µM
- MBC (B. subtilis 63501): 4 µM
- MIC (B. subtilis 63501): 2 µM
- MBC (E. faecalis 29212): 8 µM
- MIC (E. faecalis 29212): 4 µM
- MBC [2]: 8 µM
- MIC [2]: 4 µM
- GM, All [3]: 3.51 µM
- TI, All [3]: 72.93
- MIC, FeCl3 (E. coli ATCC 25922): 4 µM
- MIC, NH4Cl (E. coli ATCC 25922): 4 µM
- MIC, ZnCl2 (E. coli ATCC 25922): 8 µM
- MIC, MgCl2 (E. coli ATCC 25922): 8 µM
- MIC, CaCl2 (E. coli ATCC 25922): 16 µM
- MIC, KCl (E. coli ATCC 25922): 8 µM
- MIC, NaCl (E. coli ATCC 25922): 16 µM
- MIC, Control (E. coli ATCC 25922): 4 µM
- MIC, FeCl3 (S. aureus 29213 [4]): 2 µM
- MIC, NH4Cl (S. aureus 29213 [4]): 2 µM
- MIC, ZnCl2 (S. aureus 29213 [4]): 2 µM
- MIC, MgCl2 (S. aureus 29213 [4]): 2 µM
- MIC, CaCl2 (S. aureus 29213 [4]): 4 µM
- MIC, KCl (S. aureus 29213 [4]): 2 µM
- MIC, NaCl (S. aureus 29213 [4]): 2 µM
- MIC, Control (S. aureus 29213 [4]): 2 µM

Substance: WWWRRRRWW-NH2 [W4]
- MBC (E. coli 25922): 8 µM
- MIC (E. coli 25922): 4 µM
- MBC (E. coli O78): 16 µM
- MIC (E. coli O78): 8 µM
- MBC (E. coli UB1005): 16 µM
- MIC (E. coli UB1005): 8 µM
- MBC (S. typhimurium 14028): 16 µM
- MIC (S. typhimurium 14028): 8 µM
- MBC (S. typhimurium 7731): 16 µM
- MIC (S. typhimurium 7731): 8 µM
- MBC (S. pullorum 7913): 8 µM
- MIC (S. pullorum 7913): 4 µM
- MBC (P. aeruginosa 27853): 16 µM
- MIC (P. aeruginosa 27853): 8 µM
- GM, Gram-negative bacteria (Gram-negative bacteria): 5.88 µM
- TI, Gram-negative bacteria (Gram-negative bacteria): 21.77
- GM, Gram-positive bacteria (Gram-positive bacteria): 2.69 µM
- TI, Gram-positive bacteria (Gram-positive bacteria): 47.58
- MBC (S. aureus 25923): 4 µM
- MIC (S. aureus 25923): 2 µM
- MBC (S. aureus 29213 [1]): 4 µM
- MIC (S. aureus 29213 [1]): 2 µM
- MBC (S. epidermidis 12228): 4 µM
- MIC (S. epidermidis 12228): 2 µM
- MBC (MRSA 43300): 4 µM
- MIC (MRSA 43300): 2 µM
- MBC (B. subtilis 63501): 2 µM
- MIC (B. subtilis 63501): 1 µM
- MBC (E. faecalis 29212): 8 µM
- MIC (E. faecalis 29212): 4 µM
- MBC [2]: 32 µM
- MIC [2]: 16 µM
- GM, All [3]: 4.18 µM
- TI, All [3]: 30.62
- MIC, FeCl3 (E. coli ATCC 25922): 4 µM
- MIC, NH4Cl (E. coli ATCC 25922): 2 µM
- MIC, ZnCl2 (E. coli ATCC 25922): 4 µM
- MIC, MgCl2 (E. coli ATCC 25922): 16 µM
- MIC, CaCl2 (E. coli ATCC 25922): 8 µM
- MIC, KCl (E. coli ATCC 25922): 16 µM
- MIC, NaCl (E. coli ATCC 25922): 16 µM
- MIC, Control (E. coli ATCC 25922): 4 µM
- MIC, FeCl3 (S. aureus 29213 [4]): 2 µM
- MIC, NH4Cl (S. aureus 29213 [4]): 1 µM
- MIC, ZnCl2 (S. aureus 29213 [4]): 1 µM
- MIC, MgCl2 (S. aureus 29213 [4]): 1 µM
- MIC, CaCl2 (S. aureus 29213 [4]): 2 µM
- MIC, KCl (S. aureus 29213 [4]): 1 µM
- MIC, NaCl (S. aureus 29213 [4]): 1 µM
- MIC, Control (S. aureus 29213 [4]): 2 µM
